Reference: US11753408B2, “Compounds and method for blocking transmission of malarial parasite” (The United States of America, as represented by the …, priority 2016, dated 2023)

Tests used:
[1] = Solubility at pH 7.4; format: physicochemical
[2] = molecular target: mTOR (Homo sapiens, UniProt P42345); test: mTOR activity (no method described); format: biochemical
[3] = test system: Asexual parasites of P. falciparum strain 3D7; test: In vitro drug activity on asexual parasites (SYBR Green assay); format: cell-based, Plasmodium falciparum
Summary of the method: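 3D7 parasites at 0.5% parasitemia and 2% hematocrit were exposed to drugs (DMSO ≤0.5%) for 72 h under standard culture conditions, in duplicate. After freeze-thaw lysis, SYBR Green I lysis buffer was added for 30 min at room temperature, and fluorescence was read at 490/520 nm.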

[4] = Microsomal stability (rat); format: in vitro ADME; conditions: rat microsomes
[5] = PAMPA permeability; format: in vitro ADME

SMILES | Sol @ pH 7.4 [1] [ug/mL] | mTOR [2] [µM] | EC50 [3] [µM] | Microsomal Stability (rat) T1/2 [4] [min] | PAMPA Permeability [5] [nm/s]
O=C(c1ccc(-n2c(=O)ccc3cnc4ccc(-c5ccc(OC6CCNCC6)cc5)cc4c32)cc1)N1CCOCC1 [Compound 219] | 6.3 | 3.288 | 0.371 | >30 | 33
CN(C)CCc1ccc(-c2ccc3ncc4ccc(=O)n(-c5ccc(C(=O)NC6CC6)cc5)c4c3c2)cc1 [Compound 241] | >74 | 6.061 | 0.335 | >30 | 186
O=C(O)c1ccc(-n2c(=O)ccc3c(O)nc4ccc(-c5ccc(Cl)cc5)cc4c32)cc1 [Compound 237] | >65 | 100 | 39.5 | >30 | 33
Cc1cc(C(=O)NC2CCN(CCN(C)C)CC2)ccc1-n1c(=O)ccc2cnc3ccc(-c4ccc(Cl)cc4)cc3c21 [Compound 280] | 73.6 | 1.609 | 0.152 | >30 | 491
CCCCNC(=O)c1ccc(-n2c(=O)ccc3cnc4ccc(-c5ccc(Cl)cc5)cc4c32)cc1 [Compound 209] | <1 | 2.492 | 0.538 | 4 | < 10
CN(C)CC#Cc1ccc2ncc3ccc(=O)n(-c4ccc(C(=O)N5CCOCC5)cc4)c3c2c1 [Compound 218] | >69 | 16.25 | 1.68 | >30 | 1000
O=C(NC1CC1)c1ccc(-n2c(=O)ccc3cnc4ccc(-c5ccc(CN6CCCC6)cc5)cc4c32)cc1 [Compound 233] | >76 | 6.306 | 0.162 | >30 | 1550
CCN(CC)Cc1ccc(-c2ccc3ncc4ccc(=O)n(-c5ccc(C(=O)NC6CC6)cc5)c4c3c2)cc1 [Compound 243] | >76 | 14.6 | 0.677 | >30 | 3820
CNCc1ccc(-c2ccc3ncc4ccc(=O)n(-c5ccc(C(=O)N6CCOCC6)cc5)c4c3c2)cc1 [Compound 198] | >75 | 13.84 | 0.264 | >30 | 61
COc1cc(C(=O)NC2CCN(CCN(C)C)CC2)ccc1-n1c(=O)ccc2cnc3ccc(-c4ccc(Cl)cc4)cc3c21 [Compound 250] | 9.5 | 2.911 | 0.549 | >30 | 143
COc1cc(C(=O)NCCN(C)c2ccccc2)ccc1-n1c(=O)ccc2cnc3ccc(-c4ccc(Cl)cc4)cc3c21 [Compound 251] | <1 | 100 | 2.37 | 1.3 | < 10
CN(C)CCOc1ccc(-c2ccc3ncc4ccc(=O)n(-c5ccc(C(=O)N6CCOCC6)cc5)c4c3c2)cc1 [Compound 202] | 57.8 | 3.267 | 0.12 | >30 | 4150
Cc1cc(C(=O)NCCCN2CCCCC2)ccc1-n1c(=O)ccc2cnc3ccc(-c4ccc(Cl)cc4)cc3c21 [Compound 278] | >83 | 8 | 0.11 | 2.6 | 13800
CN(C)CCc1cccc(-c2ccc3ncc4ccc(=O)n(-c5ccc(C(=O)N6CCOCC6)cc5)c4c3c2)c1 [Compound 212] | >79 | 15.8 | 3.89 | >30 | 1890
O=C(NCCN1CCCC1)c1ccc(-n2c(=O)ccc3cnc4ccc(-c5ccc(Cl)cc5)cc4c32)cc1 [Compound 220] | 9.4 | 4.247 | 0.156 | 12.6 | 1270
Cc1cc(C(=O)NCCN2CCC2)ccc1-n1c(=O)ccc2cnc3ccc(-c4ccc(Cl)cc4)cc3c21 [Compound 293] | 0 | 6.103 | 0.146 | 22.9 | 2410
CCN(CC)CCNC(=O)c1ccc(-n2c(=O)ccc3cnc4ccc(-c5ccc(Cl)cc5)cc4c32)cc1 [Compound 284] | 36.6 | 9.354 | 0.183 | 7.5 | 2810
O=C(NCC1CCOCC1)c1ccc(-n2c(=O)ccc3cnc4ccc(-c5ccc(Cl)cc5)cc4c32)cc1 [Compound 288] | <1 | 1.258 | 0.284 | 1.2 | 188
CCN(CC)CCNC(=O)c1ccc(-n2c(=O)ccc3cnc4ccc(-c5ccc(Cl)cc5)cc4c32)c(C)c1 [Compound 276] | 34.8 | 21.76 | 0.222 | 5.8 | 9730
CN(CCNC(=O)c1ccc(-n2c(=O)ccc3cnc4ccc(-c5ccc(Cl)cc5)cc4c32)cc1)c1ccccc1 [Compound 298] | 0 | 50 | 0.95 | 1.5 | 1480

These reach a lower EC50 [3]. Values come first.

Sol @ pH 7.4 [1] [ug/mL] | mTOR [2] [µM] | EC50 [3] [µM] | Microsomal Stability (rat) T1/2 [4] [min] | PAMPA Permeability [5] [nm/s] | SMILES
70.7 | 15.09 | 0.0691 | 2.7 | 11800 | Cc1cc(C(=O)NCCCN2CCC(C)CC2)ccc1-n1c(=O)ccc2cnc3ccc(-c4ccc(Cl)cc4)cc3c21 [Compound 283]
<1 | 0.2422 | 0.0175 | >30 | 799 | NC(=O)c1ccc(-n2c(=O)ccc3cnc4ccc(-c5ccc(Cl)cc5)cc4c32)cc1 [Compound 239]
44.1 | 19.64 | 0.0489 | 7.1 | 4280 | O=C(NCCCN1CCCC1)c1ccc(-n2c(=O)ccc3cnc4ccc(-c5ccc(Cl)cc5)cc4c32)cc1 [Compound 206]
<1 | 0.9169 | 0.0198 | 23.3 | 7350 | Cc1cc(C(=O)NC2CC2)ccc1-n1c(=O)ccc2cnc3ccc(-c4ccc(Cl)c(O)c4)cc3c21 [Compound 225]
<1 | 2.083 | 0.0584 | 4.3 | 217 | CCC(=O)NCCNC(=O)c1ccc(-n2c(=O)ccc3cnc4ccc(-c5ccc(Cl)cc5)cc4c32)cc1 [Compound 287]
41.6 | 1.506 | 0.0597 | >30 | 1590 | O=C(NCCN1CCC1)c1ccc(-n2c(=O)ccc3cnc4ccc(-c5ccc(Cl)cc5)cc4c32)cc1 [Compound 285]
7.1 | 0.8206 | 0.0228 | 27.2 | 7580 | Cc1cc(C(=O)NC2CC2)ccc1-n1c(=O)ccc2cnc3ccc(-c4ccc(F)c(O)c4)cc3c21 [Compound 222]
31.6 | 0.4436 | 0.0529 | >30 | < 10 | NCCc1ccc(-c2ccc3ncc4ccc(=O)n(-c5ccc(C(=O)NC6CC6)cc5)c4c3c2)cc1 [Compound 240]
<1 | 0.8505 | 0.0227 | 18 | 3640 | O=C(NC1COC1)c1ccc(-n2c(=O)ccc3cnc4ccc(-c5ccc(Cl)cc5)cc4c32)cc1 [Compound 231]
<1 | 0.4507 | 0.0279 | >30 | 763 | O=C(NC1CC1)c1ccc(-n2c(=O)ccc3cnc4ccc(-c5ccc(Cl)cc5)nc4c32)cc1 [Compound 93]
54.7 | 1.731 | 0.0157 | >30 | 6740 | CN(C)CCN1CCN(C(=O)c2ccc(-n3c(=O)ccc4cnc5ccc(-c6ccc(Cl)cc6)cc5c43)cc2)CC1 [Compound 95]
65.6 | 4.039 | 0.0442 | 19.9 | 4270 | Cc1cc(C(=O)NCCCN(C)C)ccc1-n1c(=O)ccc2cnc3ccc(-c4ccc(Cl)cc4)cc3c21 [Compound 275]
>86 | 2.18 | 0.0274 | 3 | 334 | Cc1cc(C(=O)NCCCN(CCO)CCO)ccc1-n1c(=O)ccc2cnc3ccc(-c4ccc(Cl)cc4)cc3c21 [Compound 281]
<1 | 9.216 | 0.0867 | 1.7 | 1410 | Cc1cc(C(=O)NCCCN2CCS(=O)(=O)CC2)ccc1-n1c(=O)ccc2cnc3ccc(-c4ccc(Cl)cc4)cc3c21 [Compound 289]
